Results taken from US20140249141A1, “1,4-DIAZABICYCLO[3.2.2]NONANES AS NEURONAL NICOTINIC ACETYLCHOLINE RECEPTOR LIGANDS” (Targacept, Inc., priority 2011, published 2014).
Entries after “also recorded” stand apart in the source; their conditions may differ. Like-named read-outs stand apart in the source and are kept apart here.

Experiments:
human α7 = target: T1, human α7 (Homo sapiens, UniProt P36544); experiment: Competition binding to human α7 nicotinic receptor in membrane preparations
T1 construct: expressed in transfected cells; host or cells: HEK cells expressing human α7 and RIC3, obtained from J. Lindstrom, U. Pennsylvania; membranes prepared from the cells
Method: (§1) SH-EP1/human α4β2 (Eaton et al., 2003), SH-EP1/human α4β4 (Gentry et al., 2003), SH-EP1/α6β3β4α5 (Grinevich et al., 2005), TE671/RD and SH-SY5Y cell lines (obtained from Dr. Ron Lukas, Barrow Neurological Institute, St. Joseph's Hospital and Medical Center, Phoenix, Ariz.) were maintained in proliferative growth phase in Dulbecco's modified Eagle's medium (Gibco/BRL) with 10% horse serum (Gibco BRL), 5% fetal bovine serum (HyClone, Logan Utah), 1 mM sodium pyruvate, 4 mM L-glutamine. For maintenance of stable transfectants, the α4β2 and α4β4 cell media was supplemented with 0.25 mg/mL zeocin and 0.13 mg/mL hygromycin B. Selection was maintained for the α6β3β4α5 cells with 0.25 mg/mL of zeocin, 0.13 mg/mL of hygromycin B, 0.4 mg/mL of geneticin, and 0.2 mg/mL of blasticidin. HEK/human α7/RIC3 cells (obtained from J. Lindstrom, U. Pennsylvania, Philadelphia, Pa.) were maintained in proliferative growth phase in Dulbecco's modified Eagle's medium (Gibco/BRL) with 10% fetal bovine serum (HyClone, Logan Utah), 1 mM sodium pyruvate, 4 mM L-glutamine, 0.4 mg/mL geneticin; 0.2 mg/ml hygromycin B.
(§2) Cells were harvested in ice-cold PBS, pH 7.4, then homogenized with a polytron (Brinkmann Instruments, Westbury, N.Y.). Homongenates were centrifuged at 40,000 g for 20 minutes (4° C.). The pellet was resuspended in PBS and protein concentration determined using the Pierce BCA Protein Assay kit (Pierce Biotechnology, Rockford, Ill.).
(§3) Binding to nicotinic receptors was assayed on membranes using standard methods adapted from published procedures (Lippiello and Fernandes, 1986; Davies et al., 1999). In brief, membranes were reconstituted from frozen stocks (approximately 0.2 mg protein) and incubated for 2 h on ice in […] assay buffer (PBS) in the presence of competitor compound (0.001 nM to 100 mM) and radioligand. […] Filters were washed 3 times and the radioactivity retained was determined by liquid scintillation counting.
(§4) Binding data were expressed as percent total control binding. […] Ki was calculated using the Cheng-Prusoff equation (Cheng and Prusoff, 1973).

human α4β2 = target: T2, human α4β2 (Homo sapiens, UniProt P17787+P43681); experiment: Competition binding to human α4β2 nicotinic receptor in membrane preparations
T2 construct: expressed in transfected cells; membranes prepared from the cells
Method: as §1, §2, §3, §4

ova-challenged mice = experiment: Ovalbumin-induced lung inflammation (allergic asthma) model, airway hyperresponsiveness; assay type: in vivo; details: FIGS. 1 and 2, compared to control
Source text: Ovalbumin-induced allergic asthma is a widely used model to reproduce the airway eosinophilia, pulmonary inflammation and elevated IgE levels found during asthma. Studies can be run with or without airway hyper-responsiveness (AHR) measurements. Allergic asthma is typically triggered by allergens in the air such as pollen, mold, dust mites, etc., and is commonly characterized by reversible […], elevated levels of IgE causing mast cell activation, chronic airway inflammation, and airway hyper-responsiveness (AHR). The immunological processes involved are characterized by proliferation and activation of Th2 lymphocytes, setting off an allergic cascade.
FIGS. 1 and 2 illustrate Compound A and Control compounds in the ovalbumin-induced lung inflammation model. For detailed procedures, see Hamelmann E, Schwarze J, Takeda K, Oshiba A, Larsen G L, Irvin C G, and Gelfand E W. Noninvasive measurement of airway responsiveness in allergic mice using barometric plethysmography. Am. J. Respir. Crit. Care Med 156: 766-775, 1997, herein incorporated by reference.

[1] = SH-EP1/human α4β2 cell membranes, [3H]-nicotine, Cheng-Prusoff, read-out: Human α4β2 Ki

SMILES	Ki (human α7; HEK/human α7/RIC3 cell membranes, [3H]-epibatidine, Cheng-Prusoff, read-out: Human α7 Ki)	Ki (human α4β2; [1])	Ki (human α7)	Ki (human α4β2)	methacholine (MCh)-induced bronchoconstriction (Penh, index of airway resistance) (ova-challenged mice)
O=c1cc(N2CCN3CCC2CC3)nc2cc(-c3ccccc3)on12	280 nM	1200 nM			
Cc1cc2nc(N3CCN4CCC3CC4)cc(=O)n2o1 [drawing 5]		3200 nM	42 nM		
O=c1cc(N2CCN3CCC2CC3)nc2c3ccccc3on12			55 nM	1200 nM	
Cc1cc2nc(N3CCN4CCC3CC4)cc(=O)n2o1 [Compound A, 5-(1,4-diazabicyclo[3.2.2]nonan-4-yl)-2-methyl-7H-isoxazolo[2,3-a]pyrimidin-7-one]					statistically significant results; also recorded: reduces methacholine (MCh)-induced bronchoconstriction
